Reference: patent US20250108038A1 (priority 2023, published 2025)
Values joined by “and” are separate entries in the source; they are usually repeats but may differ in a detail not shown here. Equal values may be shown once. Where a name gives a salt, the structure may show the parent alone.

How the values were obtained:
Long Evans rats = assay: Time-restricted (deprivation-induced) feeding, food intake; format: in vivo, Long Evans rat; conditions: for Food Consumption, AVG / Food Consumption: 2 h feeding; for Food Consumption, AVG: average of 12 animals; for Food Consumption: individual animals LT-1 to LT-12; for food intake (2 h feeding period): rat, in vivo
Procedure: Food consumption was limited to 2 h/day and so was motivated by hunger caused by 22 h food deprivation. Water was freely available 24 h/day.
Specifically, 12 male Long-Evans rats were food-deprived for 22 h with a 2 h feeding period each day. Rats were trained to consume daily food during the 2 h period over 25 days. The testing phase was initiated once the rats consistently consumed 16-18 g of food per day with ≤10% variance in amount of feed consumed. Feeding took place in designated individual boxes in a quiet room separate from the housing room. Continuous remote monitoring via video camera during feeding was used to assess the BSS. Food consumption was measured by weighing the total available food before and after the 2 h feeding window, correcting for spillage. Lorcaserin (1 mg/kg) was included as a reference control (Higgins et al, 2011, Neuropsychopharmacology. 37(5): 1177-1191). Subjects were tested using a repeated-measures, Latin square design with 2-3 days wash-out between treatment cycles.
Drug was administered at a volume of 1 mL/kg, intraperitoneal (IP). […]: 0.1, 0.3, 1, 3 mg/kg. There was a pretreatment time of 30 minutes.
Drug was administered at a volume of 1 mL/kg, subcutaneous (SC) route. One dose was tested: 1 mg/kg (expressed as base). There was a pretreatment time of 10 minutes.
Following a five day period of familiarization to the test facility, animals were placed on a restricted diet regimen, in which they were allotted approximately 40 g of standard laboratory chow once per day (between 10:00 h and 14:00 h). Rats were trained to consume the daily food (approximately 16-18 g of feed consumed) over a 2 h period. Daily food intakes were stable by study Day 25, with the quantity of feed consumed varying by ≤10% per day. Water was available ad-libitum. Subjects were pair-housed for the duration of the study and were maintained on a 12 h/12 h light/dark cycle with all testing conducted during the animals' light cycle. All animal use procedures were performed in accordance with the principles of the Canadian Council on Animal Care (CCAC).
Feed was measured using a certified scale according to standard operating procedures prior to testing. Residual feed was weighed following completion of the 2 h feeding window to track total intake (g).
Compound I-19 and Lorcaserin were prepared fresh on each test day. Test article was suspended in 0.8% DMSO, 6% PEG400, and 93.2% HβCD (6% in H2O) and sonicated until fully dissolved. […] Pretreatment time (ptt) was 30 minutes prior to commencement of testing. Lorcaserin was dissolved in 0.9% saline and administered via the subcutaneous route with a dose volume of 1 mL/kg with a ppt of 10 minutes.
The primary measure from the BSS test was total measured food intake (g), expressed as mean+SEM. Data were analysed by repeated-measures ANOVA (with treatment as a factor) (Statistica Version 11, Statsoft Inc. [2012]). Planned post-hoc comparisons were made in the event of a significant main effect using Dunnett's test. Significance was set at P<0.05.

[1] = system: human 3D intestinal model (EpiIntestinal); assay: Intestinal permeability in the EpiIntestinal model; format: in vitro ADME; conditions: apical dose 100 μL of 10 mM stock solution, 120 min, 37° C.
Procedure: FIG. 2A. Intestinal permeability of Compound I-19. […] Samples were taken from the basolateral compartment at 0, 15, 30, 60, and 120 min. and were analyzed by LCMSMS for presence of parent compound. Values represent mean+SEM of n=3 separate experiments.
FIG. 2B. Intestinal permeability of Compound I-4 was determined in the human 3D intestinal model (Epilntestinal) from MatTek Corp. Tissues were dosed apically with 100 μL of 10 mM stock solution (4.25 μg) at 0 min. and the tissues were incubated with the test articles at 37° C. for a total of 120 min. Samples were taken from the basolateral compartment at 0, 15, 30, 60, and 120 min. and were analyzed by LCMSMS for presence of parent compound. Values represent mean+SEM of n=3 separate experiments.
Human 3D EpiIntestinal tissue model (MatTek, SMI-100, Lot #33921 Kit B) was used to model the intestine and was used for permeability studies. This model offers […] advantages over other permeability testing models such as Caco-2 cells. […]
The test articles (100 wL of 100 μM solution, or 4.25 ug) was applied to the apical surface of the EpiIntestinal model. […] Metabolic stability was determined by loss of parent compound using LCMSMS.
All data was compiled and organized in Excel. Mean, standard deviation, and standard deviation of the mean were calculated using Excel. […] The permeability coefficient (Papp) was calculated using the following equation: […]

SMILES	Food Consumption, AVG (Long Evans rats; Lorcaserin 1 mg/kg subcutaneous) [grams]	Food Consumption (Long Evans rats; Lorcaserin 1 mg/kg subcutaneous, hydrochloride)	decrease of food intake vs vehicle (Long Evans rats; lorcaserin 1 mg/kg SC) [%]	food intake (2 h feeding period) (Long Evans rats) [g]	Papp [1] [×10⁻⁶ cm/s]	Food Consumption, AVG (Long Evans rats; 0.1 mg/kg intraperitoneal) [grams]	Food Consumption (Long Evans rats; 0.1 mg/kg intraperitoneal)	Food Consumption, AVG (Long Evans rats; 0.3 mg/kg intraperitoneal) [grams]	Food Consumption (Long Evans rats; 0.3 mg/kg intraperitoneal)	Food Consumption, AVG (Long Evans rats; 1 mg/kg intraperitoneal) [grams]	Food Consumption (Long Evans rats; 1 mg/kg intraperitoneal)	decrease of food intake vs vehicle (Long Evans rats; 3 mg/kg Compound I-19 IP) [%]	Food Consumption, AVG (Long Evans rats; 3 mg/kg intraperitoneal) [grams]	Food Consumption (Long Evans rats; 3 mg/kg intraperitoneal)	effect on food intake (Long Evans rats; acute, 0.1, 0.3, 1, 3 mg/kg IP)
C[C@H]1CNCCc2ccc(Cl)cc21 [lorcaserin, Lorcaserin hydrochloride, reference compound]	14.6	17.9 grams and 12.7 grams (2×) and 12.5 grams and 18 grams and 17.7 grams and 16.3 grams and 15.7 grams and 12.9 grams and 13.1 grams and 13.5 grams and 12 grams	17.4	14.6 ± 0.7											
COCCOC1(c2ccc(Cl)cc2)c2ccccc2C2=NCCN21 (centres unmarked) [Compound I-4]					0.155										
Clc1ccc(C2(OCC3OCCO3)c3ccccc3C3=NCCN32)cc1 (centres unmarked) [Compound I-19]				15.9 ± 0.5	0.106	17.8	22.2 grams and 13.4 grams and 17.8 grams and 18.2 grams and 19.4 grams (2×) and 20.7 grams and 18 grams and 15.7 grams and 14.5 grams and 14.1 grams and 19.7 grams	17.2	22.1 grams and 15 grams and 18.8 grams and 15.4 grams and 19 grams and 18.2 grams and 18.1 grams and 15.8 grams and 17.8 grams and 14.9 grams and 14.5 grams and 16.5 grams	15.8	18.7 grams and 13.2 grams and 17.8 grams and 15.8 grams and 19.3 grams and 17.7 grams and 13.4 grams and 14 grams and 14.9 grams (2×) and 13.8 grams and 16.3 grams	10.6	15.9	19 grams and 14.1 grams and 18.3 grams and 14 grams and 17.7 grams and 16.6 grams and 16.3 grams and 14.8 grams and 15.5 grams and 15 grams and 13.1 grams and 16.8 grams	significantly decreased food intake at 1 and 3 mg/kg
